Patent US20090214464A1, “COMPOUNDS FOR FLAVIVIRIDAE TREATMENT” (priority 2004, published 2009)

Experiments:
[1] = test system: HCV subgenomic replicon in MH-14 cells; assay: immunoblot analysis of HCV NS5A and NS5B proteins in MH-14 HCV replicon cells; format: cell-based; conditions: 7 days
Procedure: (§1) Cell culture: Huh-7 and MH-14 cells, HCV replicon cells, are cultured in Dulbecco's modified Eagle's medium (DMEM) with 10% fetal bovine serum (FBS). PH5CH8 cells are cultured in a 1:1 mixture of DMEM and F12 medium supplemented with 100 ng/ml of epidermal growth factor, 10 μ/ml of insulin, 0.36 μg/ml of hydrocortisone, 5 μg/ml of transferrin, 5 μg/ml of linoleic acid, 20 ng/ml of selenium, 4 μg/ml of glucagon, 10 ng/ml of prolactin, 10 μg/ml of gentamicin, 200 μg/ml of kanamycin, and 2% FBS.
Immunoblot analysis: Immunoblot analysis is performed as described by K. Watashi et al., Virology 2001, 286, 391-402. The primary antibodies used in this experiment are anti-NS5A, anti-NS5B, and anti-β-actin (Sigma) antibodies.
The effect of various cyclosporins of the invention on the replication of the HCV genome using MH-14 cells, in which the HCV subgenomic replicon as shown in FIG. 1A is autonomously replicated.

[2] = test system: HCV in PH5CH8 cells (non-neoplastic hepatocyte cell line); assay: in vitro HCV infection experiment in PH5CH8 cells; format: cell-based; conditions: PH5CH8 cells treated continuously; untreated cells increase about 10-fold
Procedure: as §1
(§2) Real time RT-PCR analysis: The 5′-UTR of HCV genome RNA is quantified using the ABI PRISM 7700 sequence detector (AppliedBiosystems) as described by T. Takeuchi et al., Gastroenterology, 1999, 116, 636-642. The forward and reverse primers used in this experiment are 5′-[…]-3′ and 5′-[…]-3′, respectively. The fluorogenic probe is 5′-[…]-3′. As an internal control, ribosomal RNA is also quantified using TaqMan Ribosomal RNA Control Reagents (Applied Biosystems).

[3] = biological target: human recombinant cyclophilin (Homo sapiens, UniProt P62937); assay: competitive ELISA test of cyclophilin binding (Binding Ratio); conditions: relative to cyclosporin A in a simultaneous test
Text: A cyclosporin is considered as binding to cyclophilin if it binds to human recombinant cyclophilin at least one fifth as well as does cyclosporin A in the competitive ELISA test described by Quesniaux in Eur. J. Immunol. […] The results are expressed as the Binding Ratio (BR), which is the log to the base 10 of the ratio of the IC50 of the test compound and the IC50 in a simultaneous test of cyclosporin A itself.

HCV = conditions: ribavirin alone; cited from earlier work
[4] = test system: Balb/c mice spleen cells stimulated with irradiated CBA spleen cells; assay: Mixed Lymphocyte Reaction (MLR); format: cell-based
Text: Cyclosporins which bind strongly to cyclophilin but are not immunosuppressive have been identified. A cyclosporin is considered to be non-immunosuppressive when it has an activity in the Mixed Lymphocyte Reaction (MLR) of no more than 5%, preferably no more than 2%, that of cyclosporin A. The Mixed Lymphocyte Reaction is described by T. Meo in “Immunological Methods”, L. Lefkovits and B. Peris, Eds., Academic Press, N.Y. pp. 227-239 (1979). Spleen cells (0.5×10^6) from Balb/c mice (female, 8-10 weeks) are co-incubated for 5 days with 0.5×10^6 irradiated (2000 rads) or mitomycin C treated spleen cells from CBA mice (female, 8-10 weeks). The irradiated allogeneic cells induce a proliferative response in the Balb c spleen cells which can be measured by labeled precursor incorporation into the DNA. […] The IC50 found for the test compound in the MLR is compared with that found for cyclosporin A in a parallel experiment. In addition, non-immunosuppressive cyclosporins lack the capacity of inhibiting CN and the downstream NF-AT pathway.
IR=immunosuppressive Ratio, expressed as a percentage of the activity relative to Cyclosporin A.

[5] = test system: HCV subgenomic replicon in MH-14 cells; assay: northern blot analysis of replicon RNA in MH-14 cells; format: cell-based; conditions: 1 μg/ml, 7 days
Procedure: as §1
Northern blot analysis: Northern blot analysis is performed as described by H. Kishine et al., Biochem. Biophys. Res. Commun., 2002, 47, 119-125. The probe complementary to the NS5B sequence used in this experiment is described by H. Kishine, supra.
(§3) Replicon RNA is analyzed in MH-14 cells treated with or without a cyclosporin of the invention or IFNα for 7 days by northern blot analysis.

[6] = test system: HCV subgenomic replicon in MH-14 cells; conditions: 7th day
Procedure: as §2, §3

Sequence of human recombinant cyclophilin (P62937 whole entry): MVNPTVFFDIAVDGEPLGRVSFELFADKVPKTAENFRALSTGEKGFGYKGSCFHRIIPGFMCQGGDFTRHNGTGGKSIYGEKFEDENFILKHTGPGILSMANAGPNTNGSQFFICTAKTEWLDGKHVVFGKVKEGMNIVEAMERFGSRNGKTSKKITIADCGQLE

## IFNα
[1]; 100 U/ml, positive control
  amount of HCV NS5A and NS5B proteins by immunoblot analysis: undetectable
[2]
  increase of HCV RNA genome titer, 5th day versus 1st day post-inoculation: not observed

## [Ethyl-Ile]^4-Ciclosporin
[3]
  BR (Binding Ratio: log to the base 10 of the ratio of the IC50 of the test compound and the IC50 of cyclosporin A): 0.1

## NC(=O)c1ncn([C@@H]2O[C@H](CO)[C@@H](O)[C@H]2O)n1 [Ribavirin, 1-β-D-ribofuranosyl-1-1,2,4-triazole-3-caroxamide]
HCV
  patients with serum amino transferase levels reduced to normal: 40 % of patients
  serum levels of HCV-RNA: does not lower

## [γ-hydroxy-MeLeu]^9-Ciclosporin
[4]
  IR (immunosuppressive Ratio, percentage of the activity relative to Cyclosporin A): 2.9%
[3]
  BR (Binding Ratio: log to the base 10 of the ratio of the IC50 of the test compound and the IC50 of cyclosporin A): 0.15

## [8′-hydroxy-MeBmt]^1-Ciclosporin
[4]
  IR (immunosuppressive Ratio, percentage of the activity relative to Cyclosporin A): 1.8%
[3]
  BR (Binding Ratio: log to the base 10 of the ratio of the IC50 of the test compound and the IC50 of cyclosporin A): 0.35

## [MeVa]^4-Ciclosporin
[3]
  BR (Binding Ratio: log to the base 10 of the ratio of the IC50 of the test compound and the IC50 of cyclosporin A): 0.1

## [Melle]^4-Ciclosporin
[1]; 1 μg/ml
  amount of HCV NS5A and NS5B proteins by immunoblot analysis: undetectable
[5]
  amount of replicon RNA by northern blot: undetectable level
[6]
  level of HCV RNA relative to the original: about 1/400
[2]
  increase of HCV RNA genome titer, 5th day versus 1st day post-inoculation: not observed
[3]
  BR (Binding Ratio: log to the base 10 of the ratio of the IC50 of the test compound and the IC50 of cyclosporin A): −0.2

## [MeAla]^6-Ciclosporin
[4]
  IR (immunosuppressive Ratio, percentage of the activity relative to Cyclosporin A): 3.2%
[3]
  BR (Binding Ratio: log to the base 10 of the ratio of the IC50 of the test compound and the IC50 of cyclosporin A): −0.4

## [MeVal]^5-Ciclosporin
[4]
  IR (immunosuppressive Ratio, percentage of the activity relative to Cyclosporin A): 5.3%
[3]
  BR (Binding Ratio: log to the base 10 of the ratio of the IC50 of the test compound and the IC50 of cyclosporin A): 0.4

## [Ethyl-Val]^4-Ciclosporin
[3]
  BR (Binding Ratio: log to the base 10 of the ratio of the IC50 of the test compound and the IC50 of cyclosporin A): 0
